From patent US7070983B2, “Mutant Pseudomonas putida strains and methods of use thereof” (priority 2003, dated 2006)

Tests used:
Format in all cases: cell-based, Pseudomonas putida
[1] = system: parental strain KH146-2; experiment: Antibiotic growth suppression on LB agar
Excerpt: (§1) Spontaneous streptomycin-resistant (Str), gentamicin-resistant (Gen) or rifampicin-resistant (Rif) mutants were obtained from colonies that grew within 3 days after wild-type cells were spread on LB agar containing various concentrations of antibiotic.
We first isolated a number of spontaneous streptomycin-resistant (Str), gentamicin-resistant (Gen) and rifampicin-resistant (Rif) mutants of P. putida KH146-2. These mutants appeared at a frequency of 10^−5–10^−6 when KH146-2 cells were spread on LB agar containing various amounts of antibiotics. […] Forty mutants resistant to each antibiotic were randomly selected and examined for tolerance to 4-hydroxybenzoic acid (4HBA). 4HBA-tolerant strains, which could grow in the presence of 1% 4HBA, were detected among these antibiotic resistant mutants at a high frequency of 3 to 15% (Table 1). The highest frequency (15%) was detected in the mutants selected with 1000 μg ml^−1 of streptomycin. These 4HBA-tolerant isolates all grew as well as the parent strain on LB agar.

[2] = system: P. putida strain no. 14 (rif-1); experiment: Resistance level to antibiotic on LB agar; details: 1 days on LB agar
Excerpt: as §1

[3] = system: P. putida strain no. 15 (rif-2); experiment: Resistance level to antibiotic on LB agar; details: 1 days on LB agar
Excerpt: as §1

[4] = system: P. putida strain no. 17 (rif-3); experiment: Resistance level to antibiotic on LB agar; details: 1 days on LB agar
Excerpt: as §1

[5] = system: P. putida strain no. 18 (rif-4); experiment: Resistance level to antibiotic on LB agar; details: 1 days on LB agar
Excerpt: as §1

[6] = system: P. putida strain no. 19 (rif-5); experiment: Resistance level to antibiotic on LB agar; details: 1 days on LB agar
Excerpt: as §1

[7] = system: P. putida strain no. 20 (rif-5); experiment: Resistance level to antibiotic on LB agar; details: 1 days on LB agar
Excerpt: as §1

[8] = system: P. putida strain no. 21 (rif-3); experiment: Resistance level to antibiotic on LB agar; details: 1 days on LB agar
Excerpt: as §1

[9] = system: P. putida strain no. 22 (rif-3); experiment: Resistance level to antibiotic on LB agar; details: 1 days on LB agar
Excerpt: as §1

[10] = system: P. putida strain no. 23 (rif-4); experiment: Resistance level to antibiotic on LB agar; details: 1 days on LB agar
Excerpt: as §1

[11] = system: P. putida strain no. 24 (rif-4); experiment: Resistance level to antibiotic on LB agar; details: 1 days on LB agar
Excerpt: as §1

[12] = system: P. putida strain no. 10 (str-1); experiment: Resistance level to antibiotic on LB agar; details: 1 days on LB agar
Excerpt: as §1

[13] = system: P. putida strain no. 2 (str-1); experiment: Resistance level to antibiotic on LB agar; details: 1 days on LB agar
Excerpt: as §1

[14] = system: P. putida strain no. 3 (str-1); experiment: Resistance level to antibiotic on LB agar; details: 1 days on LB agar
Excerpt: as §1

[15] = system: P. putida strain no. 4 (str-1); experiment: Resistance level to antibiotic on LB agar; details: 1 days on LB agar
Excerpt: as §1

[16] = system: P. putida strain no. 5 (str-1); experiment: Resistance level to antibiotic on LB agar; details: 1 days on LB agar
Excerpt: as §1

[17] = system: P. putida strain no. 6 (str-1); experiment: Resistance level to antibiotic on LB agar; details: 1 days on LB agar
Excerpt: as §1

[18] = system: P. putida strain no. 8 (str-1); experiment: Resistance level to antibiotic on LB agar; details: 1 days on LB agar
Excerpt: as §1

[19] = system: P. putida strain no. 9 (str-2); experiment: Resistance level to antibiotic on LB agar; details: 1 days on LB agar
Excerpt: as §1

[20] = system: the eight Str mutants with increased tolerance to 4HBA; experiment: Resistance level to streptomycin, Str mutants as a group
Excerpt: as §1
Streptomycin resistance frequently results from a mutation in the rpsL gene for the ribosomal protein S12 (Hosoya et al., ((1998) Antimirob Agents Chemother 42:204–2047); Inaoka et al., ((2001) J Bacteriol 183:4958–4963); Shima et al., ((1996) J Bacterial 178:7276–7284)). Rifampicin resistance results from a mutation in the rpoB gene (β-subunit of RNA polymerase) (Heep et al., ((1999) Antimicrob Agents Chemother 43:1497–1499); Jin and Gross, ((1988) J Mol Biol 202:45–58); Wichelhaus et al., ((1999) Antimicrob Agents Chemother 43:2813–2816); Hu et al., ((2002) J Bacteriol 184: 3984–3991)). We therefore sequenced and compared the rpsL gene and rpoB gene from the mutants to the wild-type strain.

[21] = system: strain no. 3 carrying plasmid pYI433 containing the wild-type rpsL gene; experiment: Complementation experiment, streptomycin resistance; details: strain no. 3 carrying pYI433; about the same as wild-type levels
Excerpt: To clone the rpsL gene, a 0.9-kb DNA region covering whole rpsL was amplified from the chromosomal DNA of P. putida KH146-2 using KDO DNA polymerase (Toyobo Biochemicals, Osaka). Oligonucleotide primers were designed according to the rpoC-rpsL-rpsG sequence of P. putida KT2440 (www.tigr.org); 5′-[…]-3′ (SEQ ID NO:7—nucleotides [nt]−368 to −341 upstream of rpsL) and 5′-[…]-3′ (SEQ ID NO:8—complementary to nt 107 to 135 downstream of rpsL). The amplified DNA fragments were cloned into plasmid pUC118 (Vieira and Messing, (1987) Methods Enzymol 153: 3–11) to confirm the sequence, then excised from the plasmids as a BamHI-SphI fragment using the restriction sites in the multi-cloning sequence of the vector and inserted between the BglII and SphI sites of the E. coli-Pseudomonas shuttle vector pNIT6010 carrying tet^R, a derivative of pNIT6011 (Nishijyo et al. (2001) Mol Microbiol 40:917–931). The resultant plasmid pYI433, as well as vector control pNIT6010, was introduced into the Str mutant no. 3 (str-1) by conjugation using E. coli HB101/pRK2013 as the helper (Comai et al. (1983) Plasmid 10:21–30). Fifty μg ml^−1 of tetracycline was used for selection of transformants.
[…]

[22] = system: P. putida strain no. 11 (gen); experiment: Resistance level to antibiotic on LB agar; details: 1 days on LB agar
Excerpt: as §1

[23] = system: P. putida strain no. 12 (gen); experiment: Resistance level to antibiotic on LB agar; details: 1 days on LB agar
Excerpt: as §1

[24] = system: P. putida strain no. 13 (gen); experiment: Resistance level to antibiotic on LB agar; details: 1 days on LB agar
Excerpt: as §1

Compound: CO[C@H]1/C=C/O[C@@]2(C)Oc3c(C)c(O)c4c(O)c(c(/C=N/N5CCN(C)CC5)c(O)c4c3C2=O)NC(=O)/C(C)=C\C=C\[C@H](C)[C@H](O)[C@@H](C)[C@@H](O)[C@@H](C)[C@H](OC(C)=O)[C@@H]1C [rifampicin]
- Concentration completely suppressing growth [1]: 10 µg/mL
- Resistance level to antibiotic [2]: >500 (RIF) μg ml^−1
- Resistance level to antibiotic [3]: >500 (RIF) μg ml^−1
- Resistance level to antibiotic [4]: 500 (RIF) μg ml^−1
- Resistance level to antibiotic [5]: 500 (RIF) μg ml^−1
- Resistance level to antibiotic [6]: 500 (RIF) μg ml^−1
- Resistance level to antibiotic [7]: 500 (RIF) μg ml^−1
- Resistance level to antibiotic [8]: 500 (RIF) μg ml^−1
- Resistance level to antibiotic [9]: 500 (RIF) μg ml^−1
- Resistance level to antibiotic [10]: 500 (RIF) μg ml^−1
- Resistance level to antibiotic [11]: 500 (RIF) μg ml^−1

Compound: [H]/N=C(/N)N[C@H]1[C@H](O)[C@@H](O)[C@H](O[C@@H]2O[C@@H](C)[C@](O)(C=O)[C@H]2O[C@@H]2O[C@@H](CO)[C@H](O)[C@@H](O)[C@@H]2NC)[C@@H](N/C(N)=N\[H])[C@@H]1O [streptomycin]
- Concentration completely suppressing growth [1]: 100 µg/mL
- Resistance level to antibiotic [12]: >100,000 (STR) μg ml^−1
- Resistance level to antibiotic [13]: >100,000 (STR) μg ml^−1
- Resistance level to antibiotic [14]: >100,000 (STR) μg ml^−1
- Resistance level to antibiotic [15]: >100,000 (STR) μg ml^−1
- Resistance level to antibiotic [16]: >100,000 (STR) μg ml^−1
- Resistance level to antibiotic [17]: >100,000 (STR) μg ml^−1
- Resistance level to antibiotic [18]: >100,000 (STR) μg ml^−1
- Resistance level to antibiotic [19]: >100,000 (STR) μg ml^−1
- level of resistance to streptomycin [20]: > 100 mg/mL
- resistance compared to the wild-type strain [20]: > 1000 fold
- levels of Str (streptomycin resistance) [21]: 100 to 200 µg/mL

Compound: gentamicin
- Concentration completely suppressing growth [1]: 12 µg/mL
- Resistance level to antibiotic [22]: 50 (GEN) μg ml^−1
- Resistance level to antibiotic [23]: 50 (GEN) μg ml^−1
- Resistance level to antibiotic [24]: 50 (GEN) μg ml^−1
